Reference: publication PMC11084659, “The Development of CDC25A-Derived Phosphoseryl Peptides That Bind 14-3-3ε with High Affinities” (International Journal of Molecular Sciences, 2024)
Where a SMILES comes first, the peptide text is derived from it. [ ]: non-standard residue; d: D form. pS = N[C@@H](COP(=O)(O)O)C(=O)O

B1: pS peptide, CDC25A residues 173–186 (peptide)
peptide: Ac-TQRQN[pS]APARMLSS-NH2
SMILES: CSCC[C@H](NC(=O)[C@H](CCCNC(=N)N)NC(=O)[C@H](C)NC(=O)[C@@H]1CCCN1C(=O)[C@H](C)NC(=O)[C@H](COP(=O)(O)O)NC(=O)[C@H](CC(N)=O)NC(=O)[C@H](CCC(N)=O)NC(=O)[C@H](CCCNC(=N)N)NC(=O)[C@H](CCC(N)=O)NC(=O)[C@@H](NC(C)=O)[C@@H](C)O)C(=O)N[C@@H](CC(C)C)C(=O)N[C@@H](CO)C(=O)N[C@@H](CO)C(N)=O
notes: CDC25A residues 173-186, with phosphoserine at 178; also called parent pS peptide; source: synthetic peptide (Biosynth International Inc.), >95% purity
B2: pS(174–182) (peptide)
peptide: Ac-QRQN[pS]APAR-NH2
SMILES: CC(=O)N[C@@H](CCC(N)=O)C(=O)N[C@@H](CCCNC(=N)N)C(=O)N[C@@H](CCC(N)=O)C(=O)N[C@@H](CC(N)=O)C(=O)N[C@@H](COP(=O)(O)O)C(=O)N[C@@H](C)C(=O)N1CCC[C@H]1C(=O)N[C@@H](C)C(=O)N[C@@H](CCCNC(=N)N)C(N)=O
notes: CDC25A residues 174-182, with phosphoserine at 178; also called Ac-CDC25A(174–182)-NH2; source: synthetic peptide (Biosynth International Inc.), >95% purity
B3: [Tyr^179]pS(174–182) (peptide)
peptide: Ac-QRQN[pS]YPAR-NH2
SMILES: CC(=O)N[C@@H](CCC(N)=O)C(=O)N[C@@H](CCCNC(=N)N)C(=O)N[C@@H](CCC(N)=O)C(=O)N[C@@H](CC(N)=O)C(=O)N[C@@H](COP(=O)(O)O)C(=O)N[C@@H](Cc1ccc(O)cc1)C(=O)N1CCC[C@H]1C(=O)N[C@@H](C)C(=O)N[C@@H](CCCNC(=N)N)C(N)=O
notes: CDC25A residues 174-182, with phosphoserine at 178 and Ala179 replaced by Tyr; source: synthetic peptide (Biosynth International Inc.), >95% purity
B4: [Lys^177]pS(174–182) (peptide)
peptide: Ac-QRQK[pS]APAR-NH2
SMILES: CC(=O)N[C@@H](CCC(N)=O)C(=O)N[C@@H](CCCNC(=N)N)C(=O)N[C@@H](CCC(N)=O)C(=O)N[C@@H](CCCCN)C(=O)N[C@@H](COP(=O)(O)O)C(=O)N[C@@H](C)C(=O)N1CCC[C@H]1C(=O)N[C@@H](C)C(=O)N[C@@H](CCCNC(=N)N)C(N)=O
notes: CDC25A residues 174-182, with phosphoserine at 178 and Asn177 replaced by Lys; source: synthetic peptide (Biosynth International Inc.), >95% purity
B5: [Phe^176]pS(174–182) (peptide)
peptide: Ac-QRFN[pS]APAR-NH2
SMILES: CC(=O)N[C@@H](CCC(N)=O)C(=O)N[C@@H](CCCNC(=N)N)C(=O)N[C@@H](Cc1ccccc1)C(=O)N[C@@H](CC(N)=O)C(=O)N[C@@H](COP(=O)(O)O)C(=O)N[C@@H](C)C(=O)N1CCC[C@H]1C(=O)N[C@@H](C)C(=O)N[C@@H](CCCNC(=N)N)C(N)=O
notes: CDC25A residues 174-182, with phosphoserine at 178 and Gln176 replaced by Phe; source: synthetic peptide (Biosynth International Inc.), >95% purity
B6: [Phe^179]pS(174–182) (peptide)
peptide: Ac-QRQN[pS]FPAR-NH2
SMILES: CC(=O)N[C@@H](CCC(N)=O)C(=O)N[C@@H](CCCNC(=N)N)C(=O)N[C@@H](CCC(N)=O)C(=O)N[C@@H](CC(N)=O)C(=O)N[C@@H](COP(=O)(O)O)C(=O)N[C@@H](Cc1ccccc1)C(=O)N1CCC[C@H]1C(=O)N[C@@H](C)C(=O)N[C@@H](CCCNC(=N)N)C(N)=O
notes: CDC25A residues 174-182, with phosphoserine at 178 and Ala179 replaced by Phe; source: synthetic peptide (Biosynth International Inc.), >95% purity
B7: [Tyr^176]pS(174–182) (peptide)
peptide: Ac-QRYN[pS]APAR-NH2
SMILES: CC(=O)N[C@@H](CCC(N)=O)C(=O)N[C@@H](CCCNC(=N)N)C(=O)N[C@@H](Cc1ccc(O)cc1)C(=O)N[C@@H](CC(N)=O)C(=O)N[C@@H](COP(=O)(O)O)C(=O)N[C@@H](C)C(=O)N1CCC[C@H]1C(=O)N[C@@H](C)C(=O)N[C@@H](CCCNC(=N)N)C(N)=O
notes: CDC25A residues 174-182, with phosphoserine at 178 and Gln176 replaced by Tyr; source: synthetic peptide (Biosynth International Inc.), >95% purity

Legend:
14-3-3ε [1] = target: T1, 14-3-3ε (Homo sapiens, UniProt P62258); test: Surface plasmon resonance (SPR), steady-state affinity on immobilized His6-14-3-3ε; format: binding
T1 construct: purchased Novus Biologicals
T1 sequence (P62258 1-255): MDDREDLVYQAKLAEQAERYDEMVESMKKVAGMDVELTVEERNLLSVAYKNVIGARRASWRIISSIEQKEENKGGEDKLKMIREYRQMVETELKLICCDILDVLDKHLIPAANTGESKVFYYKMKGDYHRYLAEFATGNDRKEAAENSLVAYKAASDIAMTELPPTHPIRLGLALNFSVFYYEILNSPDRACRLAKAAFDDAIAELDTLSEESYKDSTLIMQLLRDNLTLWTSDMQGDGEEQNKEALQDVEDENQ
Procedure: (§1) The binding of the peptides to 14-3-3ε was further assessed using differential scanning fluorometry (DSF) and surface plasmon resonance (SPR) measurements. DSF was used to determine the effects of the peptides on the melting temperature (Tm) of 14-3-3ε (Table 4, Figure 6 and Figure S4). The pS peptide caused an increase in melting temperature (ΔTm) of 0.35 ± 0.16 °C, while pS(174–182) induced no ΔTm. The Phe and Tyr substitutions in position 176 led to ΔTm of 1.08 ± 0.34 °C and 1.10 ± 0.32 °C, respectively. Lys, Phe, and Tyr substitutions in position 179 led to ΔTm of between 0.00 and 0.23 °C (Table 4). To quantitatively determine the affinity of the peptides for 14-3-3ε protein using SPR, His-tagged protein was immobilized on a nitrilotriacetic acid (Ni-NTA) sensor chip, and then binding of the peptides analogs to the protein was determined.
The SPR analyses were carried out using the Biacore 8K surface plasmon resonance instrument (Cytiva, Marlborough, MA, USA). A total of 100 nM His6-14-3-3ε was immobilized on the NiCl2-activated NTA chip (Cytiva, Marlborough, MA, USA) as previously described. Then, different concentrations of peptide in the range of 0−500 μM (depending on the peptide) were injected. The experiments were performed in 20 mM TRIS, 150 mM NaCl, 50 μM EDTA, 0.005% Tween 20, and pH 7.4 buffer. The affinities of the peptides binding to 14-3-3ε were determined by fitting the data to a steady-state binding model using Biacore Insight Evaluation Software (version 5.0.18.22102).

14-3-3ε [2] = target: T1, 14-3-3ε; test: Differential scanning fluorimetry (DSF), melting temperature shift of 14-3-3ε; format: binding; conditions: 30 μM peptide, 2 µM 14-3-3ε, SYPRO-orange, 20 mM TRIS, 150 mM NaCl, 1 mM DTT, pH 7.4, average ± SD of n ≥ 5
Procedure: as §1
Thermal unfolding of 14-3-3ε (2 µM) and its complex with peptides (30 μM) was monitored in the presence of a hydrophobic protein-binding dye, SYPRO-orange (Invitrogen, Carlsbad, CA, USA), using the BioRad CFX384 Touchreal-time PCR (Hercules, CA, USA). The assays were performed in 20 mM TRIS, 150 mM NaCl, 1 mM DTT, and pH 7.4 buffer. The first derivative of the melting curves was plotted using GraphPad Prism software, version 10.0.3 to determine Tm of the protein. ΔTm was determined as the difference between Tm of 14-3-3ε in the presence of a peptide and Tm of 14-3-3ε alone.

cSCC cells = conditions: read-out: IC50, death of cSCC cells; cited from earlier work
(His)6-14-3-3ε [3] = target: T2, (His)6-14-3-3ε (UniProt P62258 1-255); test: differential scanning fluorimetry; 14-3-3ε 2 µM with peptide 30 μM, SYPRO-orange; 20 mM TRIS, 150 mM NaCl, 1 mM DTT, pH 7.4; ΔTm = Tm with peptide minus Tm of 14-3-3ε alone; conditions: both partners purified
T2 construct: 14-3-3 protein epsilon; also called His-tagged protein; source: bought: Novus Biologicals
T2 sequence (looked up): T1 sequence (P62258 1-255)

(His)6-14-3-3ε [4] = target: T2, (His)6-14-3-3ε; test: SPR; Biacore 8K; 100 nM His6-14-3-3ε immobilized on NiCl2-activated NTA chip; peptides injected at 0-500 μM (depending on the peptide); 20 mM TRIS, 150 mM NaCl, 50 μM EDTA, 0.005% Tween 20, pH 7.4; steady-state binding model; conditions: both partners purified
(His)6-14-3-3ε [5] = target: T2, (His)6-14-3-3ε; test: as above; conditions: both partners purified; remark: listed apart in the source

| Molecule | ΔG ± SD (free energy of binding derived from KD) (14-3-3ε [1]) [kcal/mol] | ΔTm (melting temperature shift of 14-3-3ε) (14-3-3ε [2]) [°C] | Kd ((His)6-14-3-3ε [4]) [µM] | further results |
| --- | --- | --- | --- | --- |
| CC(=O)N[C@@H](CCC(N)=O)C(=O)N[C@@H](CCCNC(=N)N)C(=O)N[C@@H](CCC(N)=O)C(=O)N[C@@H](CC(N)=O)C(=O)N[C@@H](COP(=O)(O)O)C(=O)N[C@@H](Cc1ccccc1)C(=O)N1CCC[C@H]1C(=O)N[C@@H](C)C(=O)N[C@@H](CCCNC(=N)N)C(N)=O [[Phe^179]pS(174–182)] (Ac-QRQN[pS]FPAR-NH2) | -5.772 ± 0.048 | 0 | – | – |
| CC(=O)N[C@@H](CCC(N)=O)C(=O)N[C@@H](CCCNC(=N)N)C(=O)N[C@@H](Cc1ccccc1)C(=O)N[C@@H](CC(N)=O)C(=O)N[C@@H](COP(=O)(O)O)C(=O)N[C@@H](C)C(=O)N1CCC[C@H]1C(=O)N[C@@H](C)C(=O)N[C@@H](CCCNC(=N)N)C(N)=O [[Phe^176]pS(174–182)] (Ac-QRFN[pS]APAR-NH2) | – | 1.08 ± 0.34 | – | – |
| CC(=O)N[C@@H](CCC(N)=O)C(=O)N[C@@H](CCCNC(=N)N)C(=O)N[C@@H](CCC(N)=O)C(=O)N[C@@H](CCCCN)C(=O)N[C@@H](COP(=O)(O)O)C(=O)N[C@@H](C)C(=O)N1CCC[C@H]1C(=O)N[C@@H](C)C(=O)N[C@@H](CCCNC(=N)N)C(N)=O [[Lys^177]pS(174–182)] (Ac-QRQK[pS]APAR-NH2) | -7.199 ± 0.055 | 0.23 ± 0.09 | – | – |
| CC(=O)N[C@@H](CCC(N)=O)C(=O)N[C@@H](CCCNC(=N)N)C(=O)N[C@@H](CCC(N)=O)C(=O)N[C@@H](CC(N)=O)C(=O)N[C@@H](COP(=O)(O)O)C(=O)N[C@@H](C)C(=O)N1CCC[C@H]1C(=O)N[C@@H](C)C(=O)N[C@@H](CCCNC(=N)N)C(N)=O [pS(174–182)] (Ac-QRQN[pS]APAR-NH2) | -6.874 ± 0.055 | – | – | – |
| CSCC[C@H](NC(=O)[C@H](CCCNC(=N)N)NC(=O)[C@H](C)NC(=O)[C@@H]1CCCN1C(=O)[C@H](C)NC(=O)[C@H](COP(=O)(O)O)NC(=O)[C@H](CC(N)=O)NC(=O)[C@H](CCC(N)=O)NC(=O)[C@H](CCCNC(=N)N)NC(=O)[C@H](CCC(N)=O)NC(=O)[C@@H](NC(C)=O)[C@@H](C)O)C(=O)N[C@@H](CC(C)C)C(=O)N[C@@H](CO)C(=O)N[C@@H](CO)C(N)=O [pS] (Ac-TQRQN[pS]APARMLSS-NH2) | -9.073 ± 0.022 | 0.35 ± 0.16 | – | IC50 (cSCC cells): 29 µM |
| CC(=O)N[C@@H](CCC(N)=O)C(=O)N[C@@H](CCCNC(=N)N)C(=O)N[C@@H](Cc1ccc(O)cc1)C(=O)N[C@@H](CC(N)=O)C(=O)N[C@@H](COP(=O)(O)O)C(=O)N[C@@H](C)C(=O)N1CCC[C@H]1C(=O)N[C@@H](C)C(=O)N[C@@H](CCCNC(=N)N)C(N)=O [[Tyr^176]pS(174–182)] (Ac-QRYN[pS]APAR-NH2) | -8.786 ± 0.11 | 1.10 ± 0.32 | – | – |
| CC(=O)N[C@@H](CCC(N)=O)C(=O)N[C@@H](CCCNC(=N)N)C(=O)N[C@@H](CCC(N)=O)C(=O)N[C@@H](CC(N)=O)C(=O)N[C@@H](COP(=O)(O)O)C(=O)N[C@@H](Cc1ccc(O)cc1)C(=O)N1CCC[C@H]1C(=O)N[C@@H](C)C(=O)N[C@@H](CCCNC(=N)N)C(N)=O [[Tyr^179]pS(174–182)] (Ac-QRQN[pS]YPAR-NH2) | -5.37 ± 0.0932 | 0 | – | – |
| B1 | – | – | 0.22 | ΔTm ((His)6-14-3-3ε [3]): 0.35 °C |
| B2 | – | – | 9.05 | Kd ((His)6-14-3-3ε [5]): 6.56 ± 2.16 µM |
| B3 | – | – | 116 | – |
| B4 | – | – | 5.23 | – |
| B5 | – | – | 0.36 | ΔTm ((His)6-14-3-3ε [3]): 1.08 °C |
| B6 | – | – | 58.3 | – |
| B7 | – | – | 0.41 | ΔTm ((His)6-14-3-3ε [3]): 1.1 °C |
